“Also recorded” adds a separate entry of the source. Each block holds one molecule with its values, some of them ahead of it. Square brackets hold non-standard residues; d marks the D form. Peptide text beside a SMILES is read from it. Dap = NC[C@H](N)C(=O)O
Assays:
[1] = biological target: mMC3R (Mus musculus, UniProt P33033); test: AlphaScreen cAMP agonist assay, HEK293 cells stably expressing mMC3R; conditions: for mMC3R agonist activity/efficacy in words: concentrations up to 100 μM, full agonist = >90% maximal NDP-MSH stimulation; for mMC3R partial agonist, percent maximal NDP stimulation: PA, relative to maximal NDP-MSH response
[2] = biological target: mMC4R (Mus musculus, UniProt P56450); test: AlphaScreen cAMP agonist assay, HEK293 cells stably expressing mMC4R; conditions: for selectivity for the mMC4R over the mMC3R: agonist potency ratio
[3] = biological target: mMC5R (Mus musculus, UniProt P41149); test: AlphaScreen cAMP agonist assay, HEK293 cells stably expressing mMC5R; conditions: for selectivity for the mMC5R over the mMC3R: agonist potency ratio
[4] = biological target: mMC1R (Mus musculus, UniProt Q01727); test: AlphaScreen cAMP agonist assay, HEK293 cells stably expressing mMC1R; conditions: for selectivity for the mMC1R over the mMC3R: agonist potency ratio; for mMC1R agonist activity/efficacy in words: full agonist = >90% maximal NDP-MSH stimulation
[5] = biological target: mouse melanocortin 4 receptor (mouse) (UniProt P56450)
[6] = concentrations up to 100 μM, full agonist = >90% maximal NDP-MSH stimulation

mMC3R, sequence (P33033 whole entry): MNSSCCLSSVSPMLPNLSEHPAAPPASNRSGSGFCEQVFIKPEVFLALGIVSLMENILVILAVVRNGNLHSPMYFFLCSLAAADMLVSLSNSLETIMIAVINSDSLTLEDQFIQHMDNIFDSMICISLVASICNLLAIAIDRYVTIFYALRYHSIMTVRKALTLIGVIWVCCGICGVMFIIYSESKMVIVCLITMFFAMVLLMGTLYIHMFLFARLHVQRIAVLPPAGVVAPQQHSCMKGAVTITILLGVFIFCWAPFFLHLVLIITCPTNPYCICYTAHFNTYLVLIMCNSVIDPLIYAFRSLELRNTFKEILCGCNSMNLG
mMC1R, sequence (Q01727 whole entry): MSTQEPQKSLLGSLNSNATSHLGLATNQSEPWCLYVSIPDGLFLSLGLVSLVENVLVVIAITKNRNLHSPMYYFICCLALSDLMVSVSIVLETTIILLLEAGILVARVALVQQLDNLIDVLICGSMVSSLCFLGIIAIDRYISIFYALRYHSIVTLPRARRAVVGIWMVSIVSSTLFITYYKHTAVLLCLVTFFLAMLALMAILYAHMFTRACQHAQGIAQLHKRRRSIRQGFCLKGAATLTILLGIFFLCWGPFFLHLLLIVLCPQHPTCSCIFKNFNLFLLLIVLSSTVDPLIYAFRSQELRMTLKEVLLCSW
mMC5R, sequence (P41149 whole entry): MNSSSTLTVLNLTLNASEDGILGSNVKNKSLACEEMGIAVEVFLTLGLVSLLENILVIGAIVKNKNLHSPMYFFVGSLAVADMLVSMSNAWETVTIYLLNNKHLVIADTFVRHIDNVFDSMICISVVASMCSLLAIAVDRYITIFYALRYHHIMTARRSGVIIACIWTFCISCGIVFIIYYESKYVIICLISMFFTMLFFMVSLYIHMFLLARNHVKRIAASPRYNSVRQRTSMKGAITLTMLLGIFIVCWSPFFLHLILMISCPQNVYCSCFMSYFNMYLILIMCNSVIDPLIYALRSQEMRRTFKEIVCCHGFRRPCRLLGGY
mMC4R, sequence (P56450 whole entry): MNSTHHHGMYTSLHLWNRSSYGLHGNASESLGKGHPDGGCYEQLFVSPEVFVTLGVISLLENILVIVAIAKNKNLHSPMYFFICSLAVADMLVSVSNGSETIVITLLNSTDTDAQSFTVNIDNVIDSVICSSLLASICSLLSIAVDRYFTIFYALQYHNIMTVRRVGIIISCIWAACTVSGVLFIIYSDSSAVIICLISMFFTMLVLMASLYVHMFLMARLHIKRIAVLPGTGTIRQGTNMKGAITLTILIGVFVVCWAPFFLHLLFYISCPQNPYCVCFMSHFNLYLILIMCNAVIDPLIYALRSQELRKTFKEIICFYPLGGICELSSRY
mouse melanocortin 4 receptor (mouse), sequence (P56450 whole entry): as above

mMC3R agonist activity/efficacy in words [1]: partially stimulated
decreased agonist potency at mMC4R relative to 5 ([2]; relative to 5): 590 fold
selectivity for the mMC5R over the mMC3R [3]: > 100 fold
decreased agonist potency at mMC5R relative to 5 ([3]; relative to 5): 1,100 fold
selectivity for the mMC1R over the mMC3R [4]: > 100 fold
decreased agonist potency at mMC1R relative to 5 ([4]; relative to 5): 420 fold
Molecule: N=C(N)NCCC[C@@H]1NC(=O)[C@@H](Cc2ccccc2)NC(=O)[C@H](Cc2c[nH]cn2)NC(=O)[C@@H]2CCCN2C(=O)[C@H]2CCCN2C(=O)[C@H](CN)NC(=O)[C@H](Cc2c[nH]c3ccccc23)NC1=O [Peptide 6, c[Pro-His-DPhe-Arg-Trp-Dap-DPro]] (cyclo(PH[dF]RW[Dap][dP]))

mMC3R agonist activity/efficacy in words [1]: partial agonist
mMC4R agonist activity/efficacy in words [2, 6]: full agonist efficacy
mMC5R agonist activity/efficacy in words [3, 6]: full agonist efficacy
mMC1R agonist activity/efficacy in words [4]: partial agonist
Molecule: C[C@@H]1NC(=O)[C@H](CN)NC(=O)[C@H](Cc2c[nH]c3ccccc23)NC(=O)[C@H](CCCNC(=N)N)NC(=O)[C@@H](Cc2ccccc2)NC(=O)[C@@H]2CCCN2C(=O)[C@H]2CCCN2C(=O)[C@H](Cc2ccccc2)NC1=O [Peptide 11, c[Pro-DPhe-Arg-Trp-Dap-Ala-Phe-DPro]] (cyclo(P[dF]RW[Dap]AF[dP]))

mMC3R partial agonist, percent maximal NDP stimulation [1]: 65%
decreased agonist potency at mMC4R relative to 1 [2]: 120 fold
decreased agonist potency at mMC5R relative to 1 [3]: 37 fold
decreased agonist potency at mMC1R relative to 1 [4]: 140 fold
Molecule: N=C(N)NCCC[C@@H]1NC(=O)[C@@H](Cc2ccccc2)NC(=O)[C@H](Cc2c[nH]cn2)NC(=O)[C@@H]2CCCN2C(=O)[C@H]2CCCN2C(=O)[C@H](CC(N)=O)NC(=O)[C@H](Cc2c[nH]c3ccccc23)NC1=O [Peptide 3, c[Pro-His-DPhe-Arg-Trp-Asn-DPro]] (cyclo(PH[dF]RWN[dP]))

mMC3R agonist activity/efficacy in words [1]: partially stimulated
selectivity for the mMC4R over the mMC3R [2]: > 300 fold
decreased agonist potency at mMC4R relative to 1 [2]: 90 fold
selectivity for the mMC5R over the mMC3R [3]: > 1000 fold
decreased agonist potency at mMC5R relative to 1 [3]: 90 fold
selectivity for the mMC1R over the mMC3R [4]: > 100 fold
mMC1R agonist activity/efficacy in words [4]: full mMC1R agonists
decreased agonist potency at mMC1R relative to 1 [4]: 1140 fold
Molecule: C[C@@H]1NC(=O)[C@H](CC(N)=O)NC(=O)[C@H](Cc2c[nH]c3ccccc23)NC(=O)[C@H](CCCNC(=N)N)NC(=O)[C@@H](Cc2ccccc2)NC(=O)[C@@H]2CCCN2C(=O)[C@H]2CCCN2C(=O)[C@H](Cc2ccccc2)NC1=O [Peptide 8, c[Pro-DPhe-Arg-Trp-Asn-Ala-Phe-DPro]] (cyclo(P[dF]RWNAF[dP]))

mMC3R partial agonist, percent maximal NDP stimulation [1]: 85%
decreased agonist potency at mMC4R relative to 1 [2]: 21 fold
decreased agonist potency at mMC5R relative to 1 [3]: 5 fold
decreased agonist potency at mMC1R relative to 1 [4]: 34 fold
Molecule: C[C@@H]1NC(=O)[C@H](CC(N)=O)NC(=O)[C@H](Cc2c[nH]c3ccccc23)NC(=O)[C@H](CCCNC(=N)N)NC(=O)[C@@H](Cc2ccccc2)NC(=O)[C@H](Cc2c[nH]cn2)NC(=O)[C@@H]2CCCN2C(=O)[C@H]2CCCN2C1=O [Peptide 2, c[Pro-His-DPhe-Arg-Trp-Asn-Ala-DPro]] (cyclo(PH[dF]RWNA[dP]))

mMC3R agonist activity/efficacy in words [1]: partially stimulated
selectivity for the mMC4R over the mMC3R [2]: > 300 fold
selectivity for the mMC5R over the mMC3R [3]: > 1000 fold
Molecule: C[C@@H]1NC(=O)[C@H](CN)NC(=O)[C@H](Cc2c[nH]c3ccccc23)NC(=O)[C@H](CCCNC(=N)N)NC(=O)[C@@H](Cc2ccccc2)NC(=O)[C@@H]2CCCN2C(=O)[C@H]2CCCN2C1=O [Peptide 12, c[Pro-DPhe-Arg-Trp-Dap-Ala-DPro]] (cyclo(P[dF]RW[Dap]A[dP]))
mMC1R agonist activity/efficacy in words [4]: full agonist efficacy; also recorded: full mMC1R agonists

agonist EC50 (cAMP AlphaScreen, HEK293 cells stably expressing the receptor) [5]: 130 nM
B1: c[Pro-DPhe-Arg-Trp-Asn-Ala-Phe-DPro] (peptide)
peptide: cyclo(P[dF]RWNAF[dP])
SMILES: C[C@@H]1NC(=O)[C@H](CC(N)=O)NC(=O)[C@H](Cc2c[nH]c3ccccc23)NC(=O)[C@H](CCCNC(=N)N)NC(=O)[C@@H](Cc2ccccc2)NC(=O)[C@@H]2CCCN2C(=O)[C@H]2CCCN2C(=O)[C@H](Cc2ccccc2)NC1=O
